Reference: patent US20100298141A1, “SUBSTITUTED PYRIDINE N-OXIDE HERBICIDES” (E. I. DU PONT DE NEMOURS AND COMPANY, priority 2007, published 2010)

What was measured:
[1] = tested on: barnyardgrass; assay: Test A pre-/postemergence greenhouse test; type: in vivo, Echinochloa crus-galli; settings: for Plant response rating, Barnyardgrass: 0 to 100 scale where 0 is no effect and 100 is complete control; for Barnyardgrass plant response rating: 0 to 100 scale
In short: (§1)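 Visual injury ratings, made relative to untreated controls roughly ten days after treatment, cover both preemergence and postemergence application. Compounds in a surfactant-containing non-phytotoxic solvent were sprayed onto the soil surface after sowing and, simultaneously, onto young plants at the one- to two-leaf stage.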

[2] = tested on: crabgrass; assay: Test A pre-/postemergence greenhouse test; type: in vivo, Digitaria sanguinalis; settings: for Plant response rating, Crabgrass, Large: 0 to 100 scale where 0 is no effect and 100 is complete control; for Crabgrass, Large plant response rating: 0 to 100 scale
In short: as §1

[3] = tested on: giant foxtail; assay: Test A pre-/postemergence greenhouse test; type: in vivo, Setaria faberi; settings: for Plant response rating, Foxtail, Giant: 0 to 100 scale where 0 is no effect and 100 is complete control; for Foxtail, Giant plant response rating: 0 to 100 scale
In short: as §1

[4] = tested on: morningglory; assay: Test A pre-/postemergence greenhouse test; type: in vivo, Ipomoea spp.; settings: for Plant response rating, Morningglory: 0 to 100 scale where 0 is no effect and 100 is complete control; for Morningglory plant response rating: 0 to 100 scale
In short: as §1

[5] = tested on: redroot pigweed; assay: Test A pre-/postemergence greenhouse test; type: in vivo, Amaranthus retroflexus; settings: for Plant response rating, Pigweed: 0 to 100 scale where 0 is no effect and 100 is complete control; for Pigweed plant response rating: 0 to 100 scale
In short: as §1

[6] = tested on: velvetleaf; assay: Test A pre-/postemergence greenhouse test; type: in vivo, Abutilon theophrasti; settings: for Plant response rating, Velvetleaf: 0 to 100 scale where 0 is no effect and 100 is complete control; for Velvetleaf plant response rating: 0 to 100 scale
In short: as §1

[7] = tested on: wheat; assay: Test A pre-/postemergence greenhouse test; type: in vivo, Triticum aestivum; settings: for Plant response rating, Wheat: 0 to 100 scale where 0 is no effect and 100 is complete control; for Wheat plant response rating: 0 to 100 scale
In short: as §1

[8] = tested on: corn; assay: Test A pre-/postemergence greenhouse test; type: in vivo, Zea mays; settings: for Plant response rating, Corn: 0 to 100 scale where 0 is no effect and 100 is complete control; for Corn plant response rating: 0 to 100 scale
In short: as §1

[9] = tested on: rice; assay: Test C flooded paddy test; type: in vivo, Oryza sativa; settings: Flood
Source text: (§2) At time of treatment, test pots were flooded to 3 cm above the soil surface, treated by application of test compounds directly to the paddy water, and then maintained at that water depth for the duration of the test. Treated plants and controls were maintained in a greenhouse for 13 to 15 days, after which time all species were compared to controls and visually evaluated. […] A dash (-) response means no test result.

[10] = tested on: umbrella sedge; assay: Test C flooded paddy test; type: in vivo, Cyperus difformis; settings: Flood
Source text: as §2

[11] = tested on: duck salad; assay: Test C flooded paddy test; type: in vivo, Heteranthera limosa; settings: Flood
Source text: as §2

[12] = tested on: barnyardgrass; assay: Test C flooded paddy test; type: in vivo, Echinochloa crus-galli; settings: Flood
Source text: as §2

[13] = Postemergence, 500 g ai/ha, 0 is no effect, 100 is complete control
[14] = Preemergence, 125 g ai/ha, 0 no effect, 100 complete control
[15] = 62 g ai/ha, scale 0 to 100 (0 no effect, 100 complete control)
[16] = 250 g ai/ha, scale 0 to 100, 0 no effect, 100 complete control, 13 to 15 days

| Structure (SMILES) | Plant response rating, Barnyardgrass ([1]; Postemergence, 125 g ai/ha) | Barnyardgrass plant response rating [1, 13] | Barnyardgrass plant response rating [1, 14] | Plant response rating, Barnyardgrass ([1]; Preemergence, 500 g ai/ha) | Plant response rating, Crabgrass, Large ([2]; Postemergence, 125 g ai/ha) | Crabgrass, Large plant response rating [2, 13] | Crabgrass, Large plant response rating [2, 14] | Plant response rating, Crabgrass, Large ([2]; Preemergence, 500 g ai/ha) | Plant response rating, Foxtail, Giant ([3]; Postemergence, 125 g ai/ha) | Foxtail, Giant plant response rating [3, 13] | Foxtail, Giant plant response rating [3, 14] | Plant response rating, Foxtail, Giant ([3]; Preemergence, 500 g ai/ha) | Plant response rating, Morningglory ([4]; Postemergence, 125 g ai/ha) | Morningglory plant response rating [4, 13] | Morningglory plant response rating [4, 14] | Plant response rating, Morningglory ([4]; Preemergence, 500 g ai/ha) | Plant response rating, Pigweed ([5]; Postemergence, 125 g ai/ha) | Pigweed plant response rating [5, 13] | Pigweed plant response rating [5, 14] | Plant response rating, Pigweed ([5]; Preemergence, 500 g ai/ha) | also measured |
| --- | --- | --- | --- | --- | --- | --- | --- | --- | --- | --- | --- | --- | --- | --- | --- | --- | --- | --- | --- | --- | --- |
| Cn1nc(C(F)(F)F)c(CS(=O)(=O)c2cccc[n+]2[O-])c1OCC(F)(F)C(F)(F)F [Compound 83] | 50 | 70 | 80 | 100 | 30 | 80 | 50 | 80 | 70 | 80 | 80 | 100 | 10 | 30 | 0 | 70 | 10 | 20 | 10 | 100 | Plant response rating, Velvetleaf ([6]; Postemergence, 125 g ai/ha): 0; Velvetleaf plant response rating [6, 13]: 40; Velvetleaf plant response rating [6, 14]: 0; Plant response rating, Velvetleaf ([6]; Preemergence, 500 g ai/ha): 60; Plant response rating, Wheat ([7]; Postemergence, 125 g ai/ha): 0; Wheat plant response rating [7, 13]: 10; Wheat plant response rating [7, 14]: 10; Plant response rating, Wheat ([7]; Preemergence, 500 g ai/ha): 60; Plant response rating, Corn ([8]; Postemergence, 125 g ai/ha): 0; Corn plant response rating [8, 13]: 0; Corn plant response rating [8, 14]: 0; Plant response rating, Corn ([8]; Preemergence, 500 g ai/ha): 40; Plant response rating, Rice [9, 15]: 20; Plant response rating, Rice [9, 16]: 20; Plant response rating, Sedge, Umbrella [10, 15]: 0; Plant response rating, Sedge, Umbrella [10, 16]: 0; Plant response rating, Ducksalad [11, 15]: 0; Plant response rating, Ducksalad [11, 16]: 0; Plant response rating, Barnyardgrass [12, 15]: 0; Plant response rating, Barnyardgrass [12, 16]: 0 |
| Cn1nc(C(F)(F)F)c(C[S+]([O-])c2cc(Cl)cc[n+]2[O-])c1OCC(F)(F)F (centres unmarked) [Compound 68] | 50 | 80 | 30 | 100 | 50 | 90 | 40 | 100 | 70 | 90 | 70 | 100 | 10 | 70 | 30 | 80 | 40 | 80 | 40 | 100 | Plant response rating, Velvetleaf ([6]; Postemergence, 125 g ai/ha): 50; Velvetleaf plant response rating [6, 13]: 60; Velvetleaf plant response rating [6, 14]: 0; Plant response rating, Velvetleaf ([6]; Preemergence, 500 g ai/ha): 60; Plant response rating, Wheat ([7]; Postemergence, 125 g ai/ha): 50; Wheat plant response rating [7, 13]: 60; Wheat plant response rating [7, 14]: 30; Plant response rating, Wheat ([7]; Preemergence, 500 g ai/ha): 70; Plant response rating, Corn ([8]; Postemergence, 125 g ai/ha): 30; Corn plant response rating [8, 13]: 70; Corn plant response rating [8, 14]: 0; Plant response rating, Corn ([8]; Preemergence, 500 g ai/ha): 70; Plant response rating, Rice [9, 15]: 0; Plant response rating, Rice [9, 16]: 80; Plant response rating, Sedge, Umbrella [10, 15]: 100; Plant response rating, Sedge, Umbrella [10, 16]: 100; Plant response rating, Ducksalad [11, 15]: 85; Plant response rating, Ducksalad [11, 16]: 90; Plant response rating, Barnyardgrass [12, 15]: 0; Plant response rating, Barnyardgrass [12, 16]: 20 |
